Laboratory results from patent US20240279302A1, “OLFACTORY RECEPTOR EXPRESSING METHOD AND RESPONSE MEASUREMENT METHOD” (Kao Corporation, priority 2021, published 2024).

Columns and labels:
OR4E2 = OR4E2 (Homo sapiens, UniProt Q8NGC2); settings: in the presence of a metal ion (JP-A-2020-513564); cited from earlier work
[1] = target: T1, OR4S2 (original olfactory receptor) (Homo sapiens, UniProt Q8NH73); assay: Luciferase assay, sulfur compounds; format: cell-based
T1 construct: expressed in transfected cells; host or cells: HEK293
T1 sequence (Q8NH73 1-311): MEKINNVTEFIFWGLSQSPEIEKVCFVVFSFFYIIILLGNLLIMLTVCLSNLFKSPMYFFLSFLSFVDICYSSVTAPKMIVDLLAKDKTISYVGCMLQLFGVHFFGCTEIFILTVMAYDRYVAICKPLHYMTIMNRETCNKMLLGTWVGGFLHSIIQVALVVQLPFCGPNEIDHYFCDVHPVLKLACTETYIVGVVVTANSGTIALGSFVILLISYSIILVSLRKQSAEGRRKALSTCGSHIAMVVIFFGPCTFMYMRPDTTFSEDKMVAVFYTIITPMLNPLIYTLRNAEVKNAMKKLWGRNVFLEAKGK
Protocol: (§1) A reaction solution as to each consensus olfactory receptor prepared in Examples described above was prepared according to the composition shown in Table 4, left standing for 20 minutes in a clean bench, and then added to each well of a 96-well plate (Becton, Dickinson and Company). The original olfactory receptor was used as to OR4S2. Composition shown in Table 20 was used as to OR11H2 and OR4E2. Subsequently, 100 μL of HEK293 cells suspended in DMEM (Nacalai Tesque, Inc.) was inoculated at 2×10^5 cells/cm^2 to each well, and cultured for 24 hours in an incubator kept at 37° C. and 5% CO2. Cells expressing no olfactory receptor (Mock) were provided as a control.
(§2) The medium was removed from the cultures prepared in 1), and 75 μL of a test substance solution (methyl mercaptan (MeSH) (CAS: 74-93-1, Tokyo Chemical Industry Co., Ltd.), dimethyl sulfide (DMS) (CAS: 75-18-3, FUJIFILM Wako Pure Chemical Corp.), dimethyl disulfide (DMDS) (CAS: 624-92-0, Tokyo Chemical Industry Co., Ltd.), concentration range: 0 μM, 1 μM, 3 μM, 10 μM, 30 μM, 100 μM, and 300 μM, or dimethyl trisulfide (DMTS) (CAS: 3658-80-8, Tokyo Chemical Industry Co., Ltd.), concentration range: 0 μM, 0.1 μM, 0.3 μM, 1 μM, 3 μM, 10 μM, and 30 μM) prepared with a fresh medium was added thereto. Under a copper ion addition condition, the test substance solution was adjusted to contain 30 μM copper(II) chloride (FUJIFILM Wako Pure Chemical Corp.) in addition to the odorant. The cells were cultured for 4 hours in a CO2 incubator and the luciferase gene was expressed sufficiently in the cells. Luciferase activity was measured using Dual-Glo™ luciferase assay system (Promega Corp.) in accordance with the operation manual of the product. A luminescence value derived from firefly luciferase induced by test substance stimulation in each well of the 96-well plate was divided by a luminescence value derived from Renilla luciferase to calculate a value (fluc/hRluc) as a signal, which was then used in analysis. The signal under each transfection condition was normalized with the signal value (fluc/hRluc) under an odorant stimulation-free condition defined as 0% and the signal value (fluc/hRluc) by stimulation with 10 μM forskolin defined as 100%, and used as a response (%) in analysis.

consensus OR4E2 = target: T2, consensus OR4E2 (Homo sapiens, UniProt Q8NGC2, A48T/F285L/G158V/H228Q/I116T/I142V/I197M/I47V/L183P/M219T/M25I/M36V/Q234R/R21W/S209T/S40L/S54R/T201S/T49I/T99A/V118M/V214L); assay: Luciferase assay, sulfur compounds; format: cell-based
T2 construct: Flag (N); Rho tag (N); expressed in transfected cells; host or cells: HEK293
T2 sequence (Q8NGC2 1-312 R21W/M25I/M36V/S40L/I47V/A48T/T49I/S54R/T99A/I116T/V118M/I142V/G158V/L183P/I197M/T201S/S209T/V214L/M219T/H228Q/Q234R/F285L limits assumed): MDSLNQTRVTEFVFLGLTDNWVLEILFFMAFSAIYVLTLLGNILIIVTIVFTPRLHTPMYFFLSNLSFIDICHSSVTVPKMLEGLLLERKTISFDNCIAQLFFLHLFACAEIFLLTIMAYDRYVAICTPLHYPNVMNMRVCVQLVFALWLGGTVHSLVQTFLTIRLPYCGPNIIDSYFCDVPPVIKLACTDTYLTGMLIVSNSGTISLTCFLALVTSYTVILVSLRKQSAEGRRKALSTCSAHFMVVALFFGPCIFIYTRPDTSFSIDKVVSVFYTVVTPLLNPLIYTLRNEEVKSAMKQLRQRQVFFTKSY
Protocol: as §1, §2

consensus OR4K17 = target: T3, consensus OR4K17 (Homo sapiens, UniProt Q8NGC6, A163V/E24Q/F120Y/F158L/G263S/I192T/I205M/I296T/I46V/K226R/L86V/P230S/S297A/V197I/V23I/V81M/V91T); assay: Luciferase assay, sulfur compounds; format: cell-based
T3 construct: expressed in transfected cells; host or cells: HEK293
T3 sequence (Q8NGC6 with tags, fused parts or gaps V23I/E24Q/I46V/V81M/L86V/V91T/F120Y/F158L/A163V/I192T/V197I/I205M/K226R/P230S/G263S/I296T/S297A): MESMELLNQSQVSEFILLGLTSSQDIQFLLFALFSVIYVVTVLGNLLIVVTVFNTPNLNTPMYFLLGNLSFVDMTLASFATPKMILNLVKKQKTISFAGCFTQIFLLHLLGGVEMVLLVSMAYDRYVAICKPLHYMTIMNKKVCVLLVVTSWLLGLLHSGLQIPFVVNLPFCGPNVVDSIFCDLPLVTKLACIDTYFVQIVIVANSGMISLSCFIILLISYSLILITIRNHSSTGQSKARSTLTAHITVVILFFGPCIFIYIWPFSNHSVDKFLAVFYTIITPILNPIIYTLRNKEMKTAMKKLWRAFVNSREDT
Protocol: as §1, §2

consensus OR11H2 = target: T4, consensus OR11H2 (Homo sapiens, UniProt Q8NH07, A157T/A61V/C266F/D203A/E289A/F213L/F41L/F62C/G242R/I210T/I230L/I288V/I49T/K181M/K238L/L128F/L146H/L162I/M76I/N106T/N25R/P269S/Q137R/Q308R/Q30L/R68Q/S246A/S268G/T131A/T283A/T37K/V63A/Y156C); assay: Luciferase assay, sulfur compounds; format: cell-based
T4 construct: expressed in transfected cells; host or cells: HEK293
T4 sequence (Q8NH07 12-326 N25R/Q30L/T37K/F41L/I49T/A61V/F62C/V63A/R68Q/M76I/N106T/L128F/T131A/Q137R/L146H/Y156C/A157T/L162I/K181M/D203A/I210T/F213L/I230L/K238L/G242R/S246A/C266F/S268G/P269S/T283A/I288V/E289A/Q308R): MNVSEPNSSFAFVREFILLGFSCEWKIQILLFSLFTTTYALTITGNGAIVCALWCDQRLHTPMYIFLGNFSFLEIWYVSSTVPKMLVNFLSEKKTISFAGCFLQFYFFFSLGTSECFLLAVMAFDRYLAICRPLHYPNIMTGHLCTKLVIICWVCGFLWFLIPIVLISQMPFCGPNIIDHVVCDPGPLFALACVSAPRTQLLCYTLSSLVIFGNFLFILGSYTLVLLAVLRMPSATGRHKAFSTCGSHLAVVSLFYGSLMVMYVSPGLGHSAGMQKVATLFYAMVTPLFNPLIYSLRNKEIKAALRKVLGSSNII
Protocol: as §1, §2

consensus OR4C15 = target: T5, consensus OR4C15 (Homo sapiens, UniProt Q8NGM1, A218G/A270V/E23K/G63A/I200A/I247V/I275T/L152F/L222F/L266F/M197L/N174D/N209I/N278T/Q295N/R137W/R299K/T258A/T88R/V55G/V87E/W233R); assay: Luciferase assay, sulfur compounds; format: cell-based
T5 construct: Flag (N); Rho tag (N); expressed in transfected cells; host or cells: HEK293
T5 sequence (Q8NGM1 1-311 with the stated changes limits assumed): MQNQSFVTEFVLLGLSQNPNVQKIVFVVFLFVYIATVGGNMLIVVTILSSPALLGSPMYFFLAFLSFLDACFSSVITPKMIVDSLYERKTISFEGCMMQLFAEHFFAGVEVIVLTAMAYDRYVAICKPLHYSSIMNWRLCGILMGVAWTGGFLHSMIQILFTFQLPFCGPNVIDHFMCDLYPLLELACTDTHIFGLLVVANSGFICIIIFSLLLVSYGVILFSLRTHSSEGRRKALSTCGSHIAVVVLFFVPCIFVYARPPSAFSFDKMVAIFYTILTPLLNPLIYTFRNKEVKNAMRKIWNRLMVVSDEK
Protocol: as §1, §2

[2] = system: HEK293 cells expressing olfactory receptor; assay: Luciferase assay: ligand responsiveness of consensus vs original olfactory receptors; format: cell-based, human; settings: consensus design
Protocol: For luciferase assay, a reaction solution was prepared according to composition shown in Table 4, left standing for 20 minutes in a clean bench, and then added to each well of a 96-well plate (Becton, Dickinson and Company). Subsequently, 100 μL of HEK293 cells suspended in DMEM (Nacalai Tesque, Inc.) was inoculated at 2×10^5 cells/cm^2 to each well, and cultured for 24 hours in an incubator kept at 37° C. and 5% CO2. Cells expressing no olfactory receptor (Mock) were provided as a control.
The medium was removed from the cultures prepared in 2), and 75 μL of a test substance solution with a predetermined concentration prepared with a fresh medium was added thereto. The cells were cultured for 4 hours in a CO2 incubator and the luciferase gene was sufficiently expresses in the cells. Luciferase activity was measured using Dual-Glo™ luciferase assay system (Promega Corp.) in accordance with the operation manual of the product. A luminescence value derived from firefly luciferase induced by test substance stimulation in each well of the 96-well plate was divided by a luminescence value derived from Renilla luciferase to calculate a signal, which was then used in analysis. The signal under each transfection condition was normalized with the signal under a stimulation-free condition defined as 0% and the signal by stimulation with 30 μM forskolin defined as 100%, and used as a response (%) in analysis.

[3] = in the presence of a copper ion

Sequence of OR4E2 (Q8NGC2 whole entry): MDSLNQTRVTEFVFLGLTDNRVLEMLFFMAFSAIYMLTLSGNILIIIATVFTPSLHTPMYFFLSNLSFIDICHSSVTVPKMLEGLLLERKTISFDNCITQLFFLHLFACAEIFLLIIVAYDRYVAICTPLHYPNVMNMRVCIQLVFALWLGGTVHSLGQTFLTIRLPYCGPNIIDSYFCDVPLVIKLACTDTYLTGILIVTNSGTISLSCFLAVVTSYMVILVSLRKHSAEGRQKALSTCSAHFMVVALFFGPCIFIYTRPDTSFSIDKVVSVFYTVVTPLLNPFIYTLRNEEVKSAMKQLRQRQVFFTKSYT

CC(C)(S)CCO [3-mercapto-3-methylbutanol]
response of OR4E2 (OR4E2): responds

CSC [dimethyl sulfide]
EC50 ([1]; OR4S2 (original), 30 μM CuCl2, read-out: EC50(μM) with 30 μM CuCl2): 22 µM
dose dependence of the response of OR4S2 [1, 3]: dose-dependent manner
response of OR4S2 [1, 3]: responded
EC50 (consensus OR4E2; consensus OR4E2, 30 μM CuCl2, read-out: EC50(μM) with 30 μM CuCl2): 22 µM
dose dependence of the response of consensus OR4E2 (consensus OR4E2; [3]): dose-dependent manner
response of consensus OR4E2 (consensus OR4E2; [3]): responded
EC50 (consensus OR4K17; consensus OR4K17, 30 μM CuCl2, read-out: EC50(μM) with 30 μM CuCl2): 188 µM
dose dependence of the response of consensus OR4K17 (consensus OR4K17; [3]): dose-dependent manner
response of consensus OR4K17 (consensus OR4K17; [3]): responded
EC50 (consensus OR11H2; consensus OR11H2, 30 μM CuCl2): 22 µM
dose dependence of the response of consensus OR11H2 (consensus OR11H2; [3]): dose-dependent manner
response of consensus OR11H2 (consensus OR11H2; [3]): responded
EC50 (consensus OR4C15; consensus OR4C15, 30 μM CuCl2, read-out: EC50(μM) with 30 μM CuCl2): 414 µM
dose dependence of the response of consensus OR4C15 (consensus OR4C15; [3]): dose-dependent manner
response of consensus OR4C15 (consensus OR4C15; [3]): responded

C=CCSSSCC=C [diallyl trisulfide]
response of OR4E2 (OR4E2): responds

B1: consensus OR2A25 (b): consensus olfactory receptor polypeptide (protein)
chain: MGGNQTSITEFLLLGFPVGPRIQMLLFGLFSLFYVFTLLGNGTILGLISLDSRLHTPMYFFLSHLAVVDIAYACNTVPQMLVNLLHPAKPISFAGCMTQTFLFLSFAHTECLLLVVMSYDRYVAICHPLRYSAIMTWRVCITLALTSWTLGVLLALIHLVLLLPLPFCRPQKINHFFCEIMAVLKLACADTHINEVMVLAGAISVLVGPLSSIVVSYMCILCAILKIQSGEGQRKAFSTCSSHLCVVGLFYGTAIIMYVGPQYGNPKEQKKYLLLFHSLFNPMLNPLIYSLRNSEVKNTLKRMLEKERAL
modifications: OR2A25 consensus-b
notes: consensus olfactory receptor polypeptide
ligand responsiveness in comparison with the original human receptor [2]: sufficiently elevated

B2: consensus OR7D4 (c): consensus olfactory receptor polypeptide (protein)
chain: MEAENHTEVSEFLLLGLSEDPELQPLLFGLFLSMYLVTVLGNLLIILAISSDSHLHTPMYFFLSNLSFVDICFISTTVPKMLVNIQAQSKDISYMGCLTQVYFFMIFAGMDNFLLTVMAYDRFVAICHPLHYTVIMNPRLCGLLVLASWFIIFWVSLVHILLMKRLTFCTGTEIPHFFCELAQVLKVACSDTLINNIVLYVATALLGVFPLTGILFSYSQIVSSLMRMSSTKGKYKAFSTCGSHLSVVSLFYGTGLGVYLSSAVTHSSQSSSIASVMYTVVTPMLNPFIYSLRNKDVKGALGRLLSRAASCP
modifications: OR7D4 consensus-c
notes: as for B1
ligand responsiveness in comparison with the original human receptor [2]: sufficiently elevated

B3: consensus OR4S2 (b): consensus olfactory receptor polypeptide (protein)
chain: MEKINNVTEFIFWGLSQSPEVQRVCFVVFLFFYIAIVLGNLLIVLTVCLSNSLKSPMYFFLSFLSFVEICYSSVTAPKMIVDLLAKDKTISYVGCMLQLFFVHFFGCTEIFLLTVMAYDRYVAICKPLHYMTIMNRQTCNKLVLGTWVGGFLHSIIQVLLVVQLPFCGPNVIDHYFCDLHPVLKLACTDTFIVGVVVTANSGTIALGSFVILLISYSIILVSLRKQSAEGRRKALSTCGSHITVVILFFGPCIFMYMRPSTTFSEDKMVAVFYTIITPMLNPLIYTLRNAEVKNAMKKLWGRNVFLEAKGK
modifications: OR4S2 consensus-b
notes: as for B1
ligand responsiveness in comparison with the original human receptor [2]: elevates responsiveness

B4: consensus OR7A17 (a): consensus olfactory receptor polypeptide (protein)
chain: MEPENDTGISEFLLLGLSEEPELQPFLFGLFLSMYLVTVLGNLLIILATISDSHLHTPMYFFLSNLSFADICFISTTVPKMLINIQTQSRVITYAGCITQMCFFVLFGGLDSLLLAVMAYDRFVAICHPLHYTVIMNPRLCGLLVLASWMIAALNSLSQSLMVLWLSFCTDLEIPHFFCELNQVIHLACSDTFLNDMGMYFAAGLLAGGPLAGILYSYSKIVSSIRAISSAQGKYKAFSTCASHLSVVSLFCCTGLGVYLTSAATHNSHTSATASVMYTVATPMLNPFIYSLRNKDIKRALKMSFRGKQ
modifications: OR7A17 consensus-a
notes: as for B1
ligand responsiveness in comparison with the original human receptor [2]: elevates responsiveness
